Assay results taken from patent US20250049812A1, “Compounds that Inhibit Necroptosis and Their Preparation Methods” (SHANGHAI INSTITUTE OF ORGANIC CHEMISTRY, CHINESE ACADEMY OF …, priority 2021, published 2025).

Tested on: Jurkat FADD (−/−) Cells
Assay: TNF-α induced necroptosis of Jurkat FADD-deficient cells (CellTiter-Glo cell survival)
Format: cell-based, human
Details: Homo sapiens; TNF-α induced necroptosis, Jurkat FADD-deficient cells, 13 hours, CellTiter-Glo; read-out: IC50
Procedure: 1. Cell Activity Testing System (TNF-α Induces the Necroptosis of Jurkat Cells, the Human Leukemia Cells Deficient in FADD).
(1) Cell culture: Jurkat FADD-deficient cells were cultured in an RPMI 1640 medium with 10% fetal bovine serum (FBS), 100 U/mL penicillin, and 100 […]. The cells were cultured in a cell culture incubator at 37° C. with 5% CO2. And all the cells were cryopreserved in a complete medium containing 5-10% DMSO. Medium change and passage were performed 3-4 times per week.
(4) Experimental scheme: The system of TNF-α inducing the necroptosis of Jurkat FADD-deficient cells was used to screen for compounds with RIPKl kinase inhibitory activity.
Jurkat FADD-deficient cells were evenly inoculated into a 384-well plate with each well added with a 40 μL complete culture medium, followed by the addition of 5 μL of the under-testing compound to each well. The initial concentration of the compounds was set at 25 μM (for some compounds with higher activity, the initial concentration was set at 0.5 μM), with a three-fold gradient dilution, totaling 12 gradient points. Three replicate wells were set for each compound. In addition, there was a blank control group and a control group with TNFα stimulation only. After the compound was added, the mixture needed to be centrifuged and incubated in a cell culture incubator at 37° C. containing 5% CO2 for 1 hour. After that, 5 μL of 5 ng/mL TNFα was added to stimulate the occurrence of necroptosis. After centrifugation and mixing, the mixture was placed in the cell culture incubator for 13 hours (until the cell death rate reaches 65% in the group with only TNF-α), with a total volume of 50 μL per well. Then, the steps below were followed to test the cell survival rate.
The CellTiter-Glo® Buffer was removed from the reagent kit, equilibrated to room temperature, and used to dissolve the CellTiter-Glo® Substrate. The CellTiter-Glo® Reagent obtained could be directly used for the experiment.
15 μL of CellTiter-Glo® Reagent which has been equilibrated to room temperature was added to each well, and incubated in the dark for 15 minutes. After that, a microplate reader (Enspire Multimode Plate Reader of PerkinElmer, USA) was used to measure the chemiluminescence.

Row | Compound | IC50 [nM]
1 | CN1C(=O)C(NC(=O)c2nnc(Cc3ccccc3)[nH]2)Cc2cn(-c3ncccc3CO)c3cccc1c23 (racemic) [T-49, (±)-5-benzyl-N-(6-(3-(hydroxymethyl)pyridin-2-yl)-1-methyl-2-oxo-2,3,4,6-tetrahydro-1H-azacyclo [4,3,2-cd]indol-3-yl)-4H-1,2,4-triazole-3-carboxamide] | < 10
2 | COC(=O)c1nccnc1-n1cc2c3c(cccc31)N(C)C(=O)C(NC(=O)c1nnc(Cc3ccccc3)[nH]1)C2 (racemic) [T-50, (±)-3-(3-(5-benzyl-4H-1,2,4-triazole-3-carboxamide)-1-methyl-2-oxo-1,2,3,4-tetrahydro-6H-azacyclo [4,3,2-cd]indol-6-yl)methyl pyrazine-2-carboxylate] | < 10
3 | COC(=O)c1ncncc1-n1cc2c3c(cccc31)N(C)C(=O)C(NC(=O)c1nnc(Cc3ccccc3)[nH]1)C2 (racemic) [T-51, (±)-5-(3-(5-benzyl-4H-1,2,4-triazole-3-carboxamide)-1-methyl-2-oxo-1,2,3,4-tetrahydro-6H-azacyclo [4,3,2-cd]indol-6-yl)pyrimidine-4-carboxylic Acid Methyl Ester] | 10 to 100
4 | CN1C(=O)C(NC(=O)c2nnc(Cc3ccccc3)[nH]2)Cc2cn(-c3ncccc3C3CC3)c3cccc1c23 (racemic) [T-52, (±)-5-benzyl-N-(6-(3-cyclopropylpyridin-2-yl)-1-methyl-2-oxo-2,3,4,6-tetrahydro-1H-azacyclo [4,3,2-cd]indol-3-yl)-4H-1,2,4-triazole-3-carboxamide] | < 10
5 | CN1C(=O)C(NC(=O)c2nnc(Cc3ccccc3)[nH]2)Cc2cn(-c3ncccc3C(F)F)c3cccc1c23 (racemic) [T-53, (±)-5-benzyl-N-(6-(3-(difluoromethyl)pyridin-2-yl)-1-methyl-2-oxo-2,3,4,6-tetrahydro-1H-azacyclo [4,3,2-cd]indol-3-yl)-4H-1,2,4-triazole-3-carboxamide] | < 10
6 | CN1C(=O)C(NC(=O)c2nnc(Cc3ccccc3)[nH]2)Cc2cn(-c3ncccc3CF)c3cccc1c23 (racemic) [T-54, (±)-5-benzyl-N-(6-(3-(fluoromethyl)pyridin-2-yl)-1-methyl-2-oxo-2,3,4,6-tetrahydro-1H-azacyclo [4,3,2-cd]indol-3-yl)-4H-1,2,4-triazole-3-carboxamide] | < 10
7 | CN1C(=O)C(NC(=O)c2nnc(Cc3ccccc3)[nH]2)Cc2cn(-c3ncccc3C(C)(C)O)c3cccc1c23 (racemic) [T-55, (±)-5-benzyl-N-(6-(3-(2-hydroxypropan-2-yl)pyridin-2-yl)-1-methyl-2-oxy-2,3,4,6-tetrahydro-1H-azacyclo [4,3,2-cd]indol-3-yl)-4H-1,2,4-triazole-3-carboxamide] | 10 to 100
8 | CNC(=O)c1cccnc1-n1cc2c3c(cccc31)N(C)C(=O)C(NC(=O)c1nnc(Cc3ccccc3)[nH]1)C2 (racemic) [T-56, (±)-2-(3-(5-benzyl-4H-1,2,4-triazole-3-carboxamide)-1-methyl-2-oxy-1,2,3,4-tetrahydro-6H-azacyclo [4,3,2-cd]indol-6-yl)-N-methylnicotinamide] | 10 to 100
9 | CN(C)C(=O)c1cccnc1-n1cc2c3c(cccc31)N(C)C(=O)C(NC(=O)c1nnc(Cc3ccccc3)[nH]1)C2 (racemic) [T-57, (±)-2-(3-(5-benzyl-4H-1,2,4-triazole-3-carboxamide)-1-methyl-2-oxy-1,2,3,4-tetrahydro-6H-azacyclo [4,3,2-cd]indol-6-yl)-N,N-dimethylnicotinamide] | 100 to 1000
10 | CC(O)c1cccnc1-n1cc2c3c(cccc31)N(C)C(=O)C(NC(=O)c1nnc(Cc3ccccc3)[nH]1)C2 (racemic) [T-58, (±)-5-benzyl-N-(6-(3-(1-hydroxyethyl)pyridin-2-yl)-1-methyl-2-oxo-2,3,4,6-tetrahydro-1H-azacyclo [4,3,2-cd]indol-3-yl)-4H-1,2,4-triazole-3-carboxamide] | 10 to 100
11 | CC(=O)c1cccnc1-n1cc2c3c(cccc31)N(C)C(=O)C(NC(=O)c1nnc(Cc3ccccc3)[nH]1)C2 (racemic) [T-59, (±)-N-(6-(3-acetylpyridin-2-yl)-1-methyl-2-oxo-2,3,4,6-tetrahydro-1H-azacyclo [4,3,2-cd]indol-3-yl)-5-benzyl-4H-1,2,4-triazole-3-carboxamide] | < 10
12 | CN1C(=O)C(N2CCc3c(nn(Cc4ccccc4)c3Cl)C2=O)Cc2cn(-c3ncccc3C(F)(F)F)c3cccc1c23 (racemic) [T-60, (±)-3-(2-benzyl-3-chloro-7-oxo-2,4,5,7-tetrahydro-6H-pyrazole [3,4-c]pyridin-6-yl)-1-methyl-6(3-(trifluoromethyl)pyridin-2-yl)-1,3,4,6-tetrahydro-2H-azepine [4,3,2-cd] indole-2-one] | < 10
13 | CN1C(=O)C(NC(=O)c2nnc(Cc3ccccc3)[nH]2)Cc2cn(-c3ncccc3C(N)=O)c3cccc1c23 (racemic) [T-61, (±)-2-(3-(5-benzyl-4H-1,2,4-triazole-3-carboxamide)-1-methyl-2-oxy-1,2,3,4-tetrahydro-6H-azacyclo [4,3,2-cd]indol-6-yl)nicotinamide] | 10 to 100
14 | CN1C(=O)C(NC(=O)c2nnc(Cc3ccccc3)[nH]2)Cc2cn(-c3ncccc3Cl)c3cccc1c23 (racemic) [T-62, (±)-5-benzyl-N-(6-(3-chloropyridin-2-yl)-1-methyl-2-oxo-2,3,4,6-tetrahydro-1H-azacyclo [4,3,2-cd]indol-3-yl)-4H-1,2,4-triazole-3-carboxamide] | < 10
15 | CN1C(=O)C(NC(=O)c2ncc(Cc3ccccc3)o2)Cc2cn(-c3ncccc3C(F)(F)F)c3cccc1c23 (racemic) [T-63, (±)-5-benzyl-N-(1-methyl-2-oxo-6-(3-(trifluoromethyl)pyridin-2-yl)-2,3,4,6-tetrahydro-1H-azacyclo [4,3,2-cd]indol-3-yl) oxazole-2-carboxamide] | < 10
16 | COc1ccc(C)nc1-n1cc2c3c(cccc31)N(C)C(=O)C(NC(=O)c1nnc(Cc3ccccc3)[nH]1)C2 (racemic) [T-64, (±)-5-benzyl-N-(6-(3-methoxy-6-methylpyridin-2-yl)-1-methyl-2-oxo-2,3,4,6-tetrahydro-1H-azacyclo [4,3,2-cd]indol-3-yl)-4H-1,2,4-triazole-3-carboxamide] | < 10
17 | CC(C)c1cccnc1-n1cc2c3c(cccc31)N(C)C(=O)C(NC(=O)c1nnc(Cc3ccccc3)[nH]1)C2 (racemic) [T-65, (±)-5-benzyl-N-(6-(3-isopropylpyridin-2-yl)-1-methyl-2-oxo-2,3,4,6-tetrahydro-1H-azacyclo [4,3,2-cd]indol-3-yl)-4H-1,2,4-triazole-3-carboxamide] | 10 to 100
18 | CN1C(=O)C(NC(=O)c2nnc(Cc3ccccc3)[nH]2)Cc2cn(-c3ncccc3C(=O)OC3CC3)c3cccc1c23 (racemic) [T-66, (±)-2-(3-(5-benzyl-4H-1,2,4-triazole-3-carboxamide)-1-methyl-2-oxo-1,2,3,4-tetrahydro-6H-azacyclo [4,3,2-cd]indol-6-yl)nicotinic Acid Cyclopropane] | < 10
19 | CCOc1cccnc1-n1cc2c3c(cccc31)N(C)C(=O)C(NC(=O)c1nnc(Cc3ccccc3)[nH]1)C2 (racemic) [T-67, (±)-5-benzyl-N-(6-(3-ethoxypyridin-2-yl)-1-methyl-2-oxy-2,3,4,6-tetrahydro-1H-azacyclo [4,3,2-cd]indol-3-yl)-4H-1,2,4-triazole-3-carboxamide] | < 10
20 | CN1C(=O)C(NC(=O)c2nnc(Cc3ccccc3)[nH]2)Cc2cn(-c3ncccc3S(C)(=O)=O)c3cccc1c23 (racemic) [T-68, (±)-5-benzyl-N-(1-methyl-6-(3-(methylsulfonyl)pyridin-2-yl)-2-oxo-2,3,4,6-tetrahydro-1H-azepine [4,3,2-cd]indol-3-yl)-4H-1,2,4-triazole-3-carboxamide] | < 10
21 | CN1C(=O)C(NC(=O)c2nnc(Cc3ccccc3)[nH]2)Cc2cn(-c3ccccn3)c3cccc1c23 (racemic) [T-69, (±)-5-benzyl-N-(1-methyl-2-oxo-6-(pyridin-2-yl)-2,3,4,6-tetrahydro-1H-azacyclo [4,3,2-cd]indol-3-yl)-4H-1,2,4-triazole-3-carboxamide] | 10 to 100
22 | CN1C(=O)C(NC(=O)c2cc(Oc3ccccc3)ccn2)Cc2cn(-c3ncccc3C(F)(F)F)c3cccc1c23 (racemic) [T-70, (±)-N-(1-methyl-2-oxo-6-(3-(trifluoromethyl)pyridin-2-yl)-2,3,4,6-tetrahydro-1H-azacyclo[4,3,2-cd]indol-3-yl)-4-phenoxy Pyridinamide] | < 10
23 | CN1C(=O)C(NC(=O)c2nnc(Cc3ccccc3)[nH]2)Cc2cn(-c3ncn(C)n3)c3cccc1c23 (racemic) [T-73, (±)-5-benzyl-N-(1-methyl-6-(1-methyl-1H-1,2,4-triazole-3-yl)-2-oxo-2,3,4,6-tetrahydro-1H-azacyclo [4,3,2-cd]indol-3-yl)-4H-1,2,4-triazole-3-carboxamide] | 10 to 100
